# Patent publication US11419335B2, “N-arylated analogues and uses thereof” (University of Florida Research Foundation, Incorporated, priority 2016, dated 2022)
# Like-named read-outs stand apart in the source and are kept apart here. Marks after values point to notes of the source that are not given here.
# Experiments:
# [1] = system: Acinetobacter baumannii (ATCC 1794); test: MIC broth microdilution, A. baumannii 1794; type: cell-based; conditions: for MIC: Acinetobacter baumannii, ATCC1794
# Method in brief: (§1)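 Values are lowest no-growth concentrations after 16–18 h at 37° C in Luria Broth, inoculum ~10^5 log-phase cells, eleven two-fold dilutions spanning 0.10–100 μM, OD600 used to confirm. DMSO, top 1% v/v, served as vehicle and negative control.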
# [2] = system: human red blood cells (hRBC); test: Hemolysis of red blood cells; type: cell-based; conditions: for RBC HC50: Table 4, concentration required to lyse 50% of red blood cells
# Method in brief: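 hRBCs (2% suspension) exposed to compounds at 0.2–200 μM (ten-point dose-response) for 1 h at 37 °C; after centrifugation, haemoglobin release read as supernatant OD at 405 nm. DMSO set as 0% and Triton X as 100% haemolysis; HC50 from dose-response curves, three independent experiments.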
# [3] = system: MRSA-1 (clinical isolate); test: MIC broth microdilution, MRSA-1; type: cell-based, Staphylococcus aureus
# Description: (§2) The minimum inhibitory concentration (MIC) for each tested compound was determined by the broth microdilution method as recommended by the Clinical and Laboratory Standards Institute (CLSI). In a 96-well plate, eleven two-fold serial dilutions of each compound were made in a final volume of 100 μL Luria Broth. Each well was inoculated with ˜10^5 bacterial cells at the initial time of incubation, prepared from a fresh log phase culture (OD600 of 0.5 to 1.0 depending on bacterial strain). […] (MIC values were supported by spectrophotometric readings at OD600). DMSO served as our vehicle and negative control in each microdilution MIC assay. DMSO was serially diluted with a top concentration of 1% v/v.
# (§3) Each well was inoculated with ˜10^5 bacterial cells at the initial time of incubation, prepared from a fresh log phase culture (OD600 of 0.5 to 1.0 depending on bacterial strain). […] The concentration range tested for each compound during this study was 0.10 to 100 μM. DMSO served as our vehicle and negative control in each microdilution MIC assay. DMSO was serially diluted with a top concentration of 1% v/v. All MIC values were obtained from a minimum of three independent experiments.
# [4] = system: SA-156 (clinical isolate); test: MIC broth microdilution, SA-156; type: cell-based, Staphylococcus aureus
# Description: as §2, §3
# [5] = system: SA-138 (clinical isolate); test: MIC broth microdilution, SA-138; type: cell-based, Staphylococcus aureus
# Description: as §2, §3
# [6] = system: methicillin-resistant Staphylococcus aureus MRSA-2 (clinical isolate); test: MIC broth microdilution, MRSA-2; type: cell-based
# Method in brief: as §1
# [7] = system: Pseudomonas aeruginosa (PAO1); test: MIC broth microdilution, PAO1; type: cell-based
# Method in brief: as §1
# [8] = system: methicillin-sensitive Staphylococcus aureus ATCC 29213; test: MIC broth microdilution, S. aureus 29213; type: cell-based
# Method in brief: (§4)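 Serial two-fold dilutions (0.10–100 μM) in LB, CLSI broth microdilution format. Inoculum: ~10^5 log-phase cells per well.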
# [9] = system: MRSA BAA-1707; test: MIC broth microdilution, MRSA BAA-1707; type: cell-based, Staphylococcus aureus
# Method in brief: as §4
# [10] = system: SA-129 (clinical isolate); test: MIC broth microdilution, SA-129; type: cell-based, Staphylococcus aureus
# Description: as §2, §3
# [11] = system: vancomycin-resistant Enterococcus faecium (VRE strain ATCC 700221); test: MIC broth microdilution, VRE 700221; type: cell-based
# Method in brief: as §1
# [12] = system: SA-147 (clinical isolate); test: MIC broth microdilution, SA-147; type: cell-based, Staphylococcus aureus
# Description: as §2, §3
# [13] = system: MRSA BAA-44; test: MIC broth microdilution, MRSA BAA-44; type: cell-based, Staphylococcus aureus
# Description: as §2, §3
# [14] = system: methicillin-resistant Staphylococcus epidermidis (MRSE strain ATCC 35984); test: MIC broth microdilution, MRSE 35984; type: cell-based
# Method in brief: as §1
# [15] = Table 1B, read-out: MIC MRSA BAA-1707
# [16] = Table 2A, read-out: MRSA BAA-1707 MIC
# [17] = Table 3, read-out: MIC MRSA BAA-1707
structure (smiles),measurement,setting,value
"CCCCCCCCCCCCCCCCn1cc[n+](Cc2ccccc2)c1C [NH125, 3-benzyl-1-hexadecyl-2-methyl-1H-imidazol-3-ium bromide, reference compound]",MIC,"[1]; Table 1, read-out: MIC A. baumannii 1794",37.5 µM
same,MIC,"[1]; Table 4, read-out: MIC A. bau. 1794",37.5 µM
same,MIC A. baumannii 1794,[1]; Table 1A,37.5^a
same,hemolytic activity,[2],potent hemolytic activities
same,HC50,"[2]; human, 1 h, pH 7.2",35.6 µM
same,MIC,"[3]; Staphylococcus aureus, MRSA, Table 3",6.25 µM
same,MIC,"[4]; Staphylococcus aureus, Table 3",6.25 µM
same,MIC,"[5]; Staphylococcus aureus, Table 3",6.25 µM
same,MIC,"[6]; Staphylococcus aureus, BAA-1707 / MRSA, MRSA-2 and MRSA BAA-1707, read-out: MIC against two MRSA strains",2.35 to 4.69 µM
same,MIC,"[6]; Staphylococcus aureus, MRSA, Table 1, read-out: MIC MRSA-2",4.69 µM
same,MIC,"[6]; Staphylococcus aureus, MRSA, Table 4, read-out: MIC MRSA-2",4.69 µM
same,MIC,"[6]; Staphylococcus aureus, MRSA, Table 3, read-out: MIC MRSA-2",3.13 µM
same,MIC MRSA-2,[6]; Table 1A,4.69^a
same,MIC,"[7]; Pseudomonas aeruginosa, PAO1, Table 1",> 100 µM
same,MIC PAO1,[7]; Table 1A,> 100 µM
same,MIC PAO1,[7]; Table 4,>100 µM
same,MIC,"[8]; Staphylococcus aureus, ATCC29213, Table 3",4.69 µM
same,MIC,"[9]; Staphylococcus aureus, Table 1, read-out: MIC MRSA BAA-1707",2.35 µM
same,MIC,"[9]; Staphylococcus aureus, Table 2, read-out: MRSA BAA-1707 MIC",2.35 µM
same,MIC,"[9]; Staphylococcus aureus, Table 4, read-out: MIC MRSA 1707",2.35 µM
same,MIC MRSA BAA-1707,[9]; Table 3,2.35^a μM
same,MIC,"[10]; Staphylococcus aureus, Table 3",4.69 µM
same,MIC,"[11]; Table 1, read-out: MIC VRE 700221",3.13 µM
same,MIC E. faecium VRE 700221,[11]; Table 1A,3.13 µM
same,MIC,"[11]; Table 2, read-out: VRE 700221 MIC",3.13 µM
same,MIC VRE 700221,[11]; Table 4,3.13 µM
same,MIC,"[12]; Staphylococcus aureus, Table 3",4.69 µM
same,MIC,"[13]; Staphylococcus aureus, Table 3",4.69 µM
same,MIC,"[14]; Staphylococcus epidermidis, Table 1, read-out: MIC MRSE 35984",4.69 µM
same,MIC,"[14]; Staphylococcus epidermidis, Table 2, read-out: MRSE 35984 MIC",4.69 µM
same,MIC S. epidermidis MRSE 35984,[14]; Table 1A,4.69^a
same,MIC MRSE 35984,[14]; Table 4,4.69a micromolar
CCCCCCCCCCCCCCCCn1cc[n+](C)c1C.[I-] [Compound 8],MIC A. bau. 1794,[1],12.5 µM
same,MIC A. baumannii 1794,[1]; in µM,12.5
same,HC50,[2]; Table 1A,13 µM
same,RBC HC50,[2],13.0 µM
same,MIC,[3]; Table 1B,1.56 µM
same,MIC,[3]; Table 3,1.56 µM
same,MIC,[4]; Table 1B,1.56 µM
same,MIC,[4]; Table 3,1.56 µM
same,MIC SA-138,[5]; Table 1B,2.35^a μM
same,MIC SA-138,[5]; Table 3,2.35^a μM
same,MRSA-2 MIC,[6],1.17^a μM
same,MIC,[8]; Table 1B,1.56 µM
same,MIC,[8]; Table 3,1.56 µM
same,MIC,[9]; [15],0.39 µM
same,MIC,[9]; [16],0.39 µM
same,MIC,[9]; [17],0.39 µM
same,MIC MRSA 1707,[9]; Table 4,0.39 µM
same,MIC,[10]; Table 1B,1.56 µM
same,MIC,[10]; Table 3,1.56 µM
same,MIC E. faecium VRE 700221,[11],2.35^a
same,MIC VRE 700221,[11],2.35a micromolar
same,VRE MIC,[11],2.35^a μM
same,MIC SA-147,[12]; Table 1B,1.17^a μM
same,MIC SA-147,[12]; Table 3,1.17^a μM
same,MIC,[13]; Table 1B,1.56 µM
same,MIC,[13]; Table 3,1.56 µM
same,MIC MRSE 35984,[14],1.17a micromolar
same,MIC S. epidermidis MRSE 35984,[14],1.17^a
same,MRSE 35984 MIC,[14],1.17^a μM
CCCCCCCCCCCCCCCCn1cc(-c2ccccc2)[n+](C)n1.[I-] [Compound 30],MIC A. baumannii 1794,"[1]; Table 1A, in µM",12.5
same,MIC A. bau. 1794,[1]; Table 4,12.5 µM
same,HC50,[2]; Table 1A,12.6 µM
same,RBC HC50,[2],12.6 µM
same,MIC MRSA-1,[3]; Table 1B,4.69^a μM
same,MIC MRSA-1,[3]; Table 3,4.69^a μM
same,MIC SA-156,[4]; Table 1B,2.35^s μM
same,MIC SA-156,[4]; Table 3,2.35^a μM
same,MIC SA-138,[5]; Table 1B,2.35^a μM
same,MIC SA-138,[5]; Table 3,2.35^a μM
same,MIC MRSA-2,[6]; Table 1A,3.13 µM
same,MIC,"[6]; Table 1B, read-out: MIC MRSA-2",6.25 µM
same,MRSA-2 MIC,[6]; Table 2A,3.13 µM
same,MIC,"[6]; Table 3, read-out: MIC MRSA-2",6.25 µM
same,MIC MRSA-2,[6]; Table 4,3.13 µM
same,MIC PAO1,[7]; Table 1A,> 100 µM
same,MIC PAO1,[7]; Table 4,>100 µM
same,MIC,[8]; Table 1B,3.13 µM
same,MIC,[8]; Table 3,3.13 µM
same,MIC,[9]; [15],3.13 µM
same,MIC,[9]; [16],3.13 µM
same,MIC,[9]; [17],3.13 µM
same,MIC MRSA 1707,[9]; Table 4,3.13 µM
same,MIC,[10]; Table 1B,1.56 µM
same,MIC,[10]; Table 3,1.56 µM
same,MIC E. faecium VRE 700221,[11]; Table 1A,3.13 µM
same,VRE MIC,[11]; Table 2A,3.13 µM
same,MIC VRE 700221,[11]; Table 4,3.13 µM
same,MIC,[12]; Table 1B,1.56 µM
same,MIC,[12]; Table 3,1.56 µM
same,MIC MRSA BAA-44,[13]; Table 1B,4.69^a μM
same,MIC MRSA BAA-44,[13]; Table 3,4.69^a μM
same,MIC S. epidermidis MRSE 35984,[14]; Table 1A,1.56 µM
same,MIC,"[14]; Table 2A, read-out: MRSE 35984 MIC",1.56 µM
same,MIC MRSE 35984,[14]; Table 4,1.56 µM
